target: T1, Serpin H1 (Homo sapiens, UniProt P50454); assay: Inhibitory concentration against Hsp47 collagen chaperone in turbidity assay
T1 sequence (P50454 whole entry): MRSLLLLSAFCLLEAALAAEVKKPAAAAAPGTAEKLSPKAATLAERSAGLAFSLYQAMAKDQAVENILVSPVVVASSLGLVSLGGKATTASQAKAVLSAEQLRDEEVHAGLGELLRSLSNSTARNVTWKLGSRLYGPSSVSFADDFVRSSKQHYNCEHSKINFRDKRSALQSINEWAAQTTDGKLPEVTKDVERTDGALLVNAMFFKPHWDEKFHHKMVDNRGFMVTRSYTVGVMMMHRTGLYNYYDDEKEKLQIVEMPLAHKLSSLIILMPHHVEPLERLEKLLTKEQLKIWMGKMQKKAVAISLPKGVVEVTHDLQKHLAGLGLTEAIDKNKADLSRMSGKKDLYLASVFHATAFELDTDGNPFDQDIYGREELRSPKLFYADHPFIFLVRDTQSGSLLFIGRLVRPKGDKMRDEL

| IC50 [µM] | SMILES |
| --- | --- |
| 26.6 | COc1ccc(C(C[N+](=O)[O-])Sc2ccc(N)cc2)cc1 (centres undefined) |
| 6.3 | Cc1cc(C(=O)CSc2nc(O)c(C#N)c(-c3cccs3)n2)ccc1Cl |
| 3.1 | COC(=O)c1cc(Cl)cc2c1N[S+]([O-])S2 (centres undefined) |
| 26.6 | Nc1ccc(SC(C[N+](=O)[O-])c2ccc(F)cc2)cc1 (centres undefined) |

Reference: ChEMBL document CHEMBL1142712, “Identification of small molecule chemical inhibitors of the collagen-specific chaperone Hsp47” (J Med Chem, 2005)
